What was measured:
[1] = Moisture uptake by ganciclovir in an open Petri dish; format: physicochemical; settings: ganciclovir containing 1.99% water, 25° C., 60% RH
Method: Different formulations containing variable percentages of water were subjected to stability and moisture uptake studies. For example, ganciclovir containing 1.99% water content was subjected to moisture uptake at 25° C. and 60% relative humidity (RH) in an open Petri dish and the increase in weight was monitored.

[2] = Accelerated stability testing of packaged final product; format: physicochemical; settings: 40° C., 75% RH
Method: Accelerated stability testing was conducted by varying the water content of ganciclovir between 1.99% w/w and 2.54% w/w. The packages of final product were stored at 40° C. and 75% RH for a period of three months. At predetermined intervals, some of the packages were opened and analyzed to determine the amount of active ingredient, related impurities (RS), and water content present in the formulation.

cytomegalovirus (CMV) = settings: human clinical studies; cited from earlier work
[3] = tested on: herpes simplex virus (HSV); settings: human clinical studies; cited from earlier work

Nc1nc2c(ncn2COC(CO)CO)c(=O)[nH]1 [ganciclovir, 9-(1,3-dihydroxy-2-propoxymethyl) guanine]
Increase in moisture during storage [1]: no appreciable increase in moisture during storage
Moisture gain ([1]; 2.0 hrs): 0.12 % w/w
Moisture gain ([1]; 4.0 hrs): 0.38 % w/w
Moisture gain ([1]; 8.0 hrs): 0.46 % w/w
Moisture gain ([1]; 48.0 hrs): 0.49 % w/w
Moisture gain ([1]; 168.0 hrs (1 week)): 0.50 % w/w
initial purity retained ([2]; after one month): at least 97%
purity lost ([2]; after one month): less than about three percent
initial purity retained ([2]; after three months): at least 87%
purity lost ([2]; after three months): less than about five percent
initial purity retained ([2]; after two months): at least 96%
purity lost ([2]; after two months): less than about four percent
activity against cytomegalovirus (CMV) (cytomegalovirus (CMV)): active
activity against herpes simplex virus (HSV) [3]: active

Reference: patent US20060189565A1, “Pharmaceutical compositions of ganciclovir” (priority 2002, published 2006)
